Measurements reported in paper PMC12340956, “Tranylcypromine-Based LSD1 Inhibitors as Useful Agents to Reduce Viability of” (ACS Infectious Diseases, 2025).
Where two headings read alike, the source gives them in different places.

Columns and labels:
[1] = system: human recombinant LSD1-CoREST enzymatic complex; details: Table S1, cited from earlier work
adult worms = test: Adult worm viability phenotypic assay, 72 h; details: Schistosoma mansoni, read-out: IC50 (adult worm viability)
Description: The life cycle is maintained at the Swiss TPH as described previously. Cercariae were obtained from infected snails by exposing them to a strong light source for 3–4 h in pond water.
(§3) For NTS and adult worms, transparent flat-bottom 96- and 24-well plates were used, respectively (Sarstedt, Switzerland). For juvenile worms, 48-well plates were used with 3–6 worms per plate and RPMI medium with 5% FCS and 1% penicillin/streptomycin. Compounds were initially tested at 20 and 10 μM in triplicate on NTS and repeated once; each well contained 30–40 NTS. Phenotypic reference points such as motility, morphology, and granularity were used to score incubated parasites’ overall viability (scores from 0 to 3). […] Identified hits from the NTS screening were tested on adult worms. […] The experiment was conducted in duplicate and repeated; standard deviations were calculated from two wells. […] For all in vitro assays, negative controls (DMSO at the highest tested concentration) were included.

[2] = system: newly transformed schistosomula (NTS); test: NTS viability phenotypic screening, 72 h; details: for IC50: Schistosoma mansoni, read-out: IC50 (NTS viability)
Description: as §3

[3] = MTT cytotoxicity in RPE cells; type: cell-based; details: human, retinal pigment epithelial (RPE) cells
Description: (§1) The MTT method was used to evaluate cell viability after 72 h of treatment.
(§2) Human commercial lung diploid fibroblasts (MRC-5), and diploid retinal epithelium cells (RPE) were obtained from the American Type Culture Collection (ATCC) and kindly provided by Dr Francesca Degrassi (CNR IBPM) and maintained in minimal essential medium or DMEM-F12 medium supplemented with fetal calf serum, antibiotics, and nonessential amino acids. Cells were grown at 37 °C, in a humidified atmosphere, with 5% CO2. For experiments, cells were seeded in 200 μL of complete in each well of a 96-well microtiter plate. After 24 h, compounds were added at 5, 10, 25, and 50 μM for 72 h in sextuplicate. MTT was added (0.5 mg/mL), incubated for 4 h at 37 °C, and dissolved in 200 μL of isopropyl alcohol. Absorbance was measured at 570 nm (ELISA reader, DASIT), and cell viability was calculated as viability=(ODoftreatedcells/ODofcontrolcells)×100

[4] = MTT cytotoxicity in MRC-5 cells; type: cell-based; details: human, MRC-5 lung diploid fibroblast cells
Description: as §1, §2

[5] = ref 2 (SI: Fioravanti et al., ChemMedChem 2020)
[6] = 5 μM, read-out: percentage of viability, 72 h
[7] = 10 μM, read-out: percentage of viability, 72 h
[8] = 25 μM, read-out: percentage of viability, 72 h
[9] = 50 μM, read-out: percentage of viability, 72 h
[10] = read-out: IC50 (cell viability)

| SMILES | IC50 (adult worms) | Percentage of reduction of NTS viability, 72 h ([2]; 10 μM) | Percentage of reduction of NTS viability, 72 h ([2]; 20 μM) | IC50 [2] | IC50 [1, 5] | also measured |
| --- | --- | --- | --- | --- | --- | --- |
| NC1CC1c1ccc(NC(=O)c2ccn(C(=O)OCc3ccccc3)c2)cc1 (stereo not drawn) [Compound 6] | > 20 µM | 40.0 ± 2.0% | 100 ± 0.0% | > 10 µM |  | IC50 ([1]; ref 4 (SI: Rodriguez et al., MedChemComm 2015)): 0.05 ± 0.004 µM |
| NC1CC1c1ccc(NC(=O)C(Cc2ccccc2)NC(=O)OCc2ccccc2)cc1 (stereo not drawn) [Compound 11, benzyl (1-((4-(2-aminocyclopropyl)phenyl)amino)-1-oxo-3-phenylpropan-2-yl)carbamate] | > 20 µM |  |  |  |  |  |
| NC1CC1c1ccc(NC(=O)c2ccc(O)c3ncccc23)cc1 (stereo not drawn) [Compound 1] |  | 37.9 ± 0.0% | 45.8 ± 4.2% | > 20 µM |  | IC50 ([1]; ref 1 (SI: Rotili et al., J Med Chem 2014)): < 1 µM |
| NC1CC1c1ccc(NC(=O)C(Cc2c[nH]c3ccccc23)NC(=O)OCc2ccccc2)cc1 (stereo not drawn) [Compound 12] |  | 41.4 ± 1.7% | 50.0 ± 0.0% | > 10 µM | 0.19 ± 0.03 µM |  |
| NC1CC1c1ccc(NC(=O)C(Cc2csc3ccccc23)NC(=O)OCc2ccccc2)cc1 (stereo not drawn) [Compound 13] |  | 36.2 ± 0.9% | 50.0 ± 4.2% | > 10 µM | 0.08 ± 0.01 µM |  |
| NC1CC1c1ccc(NC(=O)c2ccc(-c3ccsc3)cc2)cc1 (stereo not drawn) [Compound 4] | > 10 µM | 43.1 ± 0.9% | 79.17 ± 0.0% | > 10 µM |  | IC50 ([1]; ref 3 (SI: Fioravanti et al., J Enzyme Inhib Med Chem 2022)): 0.34 ± 0.11 µM |
| CN1CCN(c2cc(C(=O)Nc3ccc(C4CC4N)cc3)ccc2NC(=O)OCc2ccccc2)CC1 (stereo not drawn) [Compound 5] | 2.23 µM | 100 ± 0.0% | 100 ± 0.0% | 1.35 µM | 0.09 ± 0.01 µM | viability at 72 h, 5 µM [3, 6]: 63 ± 33%; viability at 72 h, 10 µM [3, 7]: 72 ± 18%; viability at 72 h, 25 µM [3, 8]: 82 ± 11%; viability at 72 h, 50 µM [3, 9]: 57 ± 10%; IC50 at 72 h [3, 10]: 55.8 µM; Percentage of reduction of NTS viability, 72 h ([2]; 1 μM): 18.0 ± 1.0%; viability at 72 h, 5 µM [4, 6]: 75 ± 7%; viability at 72 h, 10 µM [4, 7]: 59 ± 5%; viability at 72 h, 25 µM [4, 8]: 58 ± 2%; viability at 72 h, 50 µM [4, 9]: 39 ± 4%; IC50 at 72 h [4, 10]: 24.3 µM |
